Reference: ChEMBL document CHEMBL3885861, “Open TG-GATES”

Species on record: Rattus norvegicus
Experiment: Open TG-GATES - Regimen: Single
Assay type: toxicity, organism-based, Sprague-Dawley
Set-up: regimen Single, gender Male, age 6 weeks
Conditions: in vivo, po, route gavage; for TP / gamma-GTP / ALP / AST / CRE / DBIL / IP / K / LDH / Na / RALB / TBIL / TC / TG / ALT: tissue Plasma; for Bas / Eos / Fbg / Hb / Lym / MCH / MCHC / MCV / Mono / Neu / PT / RBC / Ret / APTT / WBC / Ht: tissue Blood; for KIDNEY_L / KIDNEY_R / KIDNEY_TOTAL: tissue Kidney
[1] = 30 mg/kg, 3 h, dose level Middle
[2] = 30 mg/kg, 6 h, dose level Middle
[3] = 30 mg/kg, 9 h, dose level Middle
[4] = 30 mg/kg, 24 h, dose level Middle
[5] = 100 mg/kg, 3 h, dose level High
[6] = 100 mg/kg, 6 h, dose level High
[7] = 100 mg/kg, 9 h, dose level High
[8] = 100 mg/kg, 24 h, dose level High

`Cc1cnc(NC(=O)C2=C(O)c3ccccc3S(=O)(=O)N2C)s1` [MELOXICAM] showed a TP (10 mg/kg, 24 h, dose level Low) of 5.4 g/dL, a gamma-GTP (10 mg/kg, 24 h, dose level Low) of 1 IU/L and a TERMINAL_BW [1] of 226 g. The Bas [1] was 1%, the Eos [1] was 0.8% and the Fbg [1] was 212 mg/dL. For the same compound, the Hb [1] was 13.3 g/dL, the Lym [1] was 79.6% and the MCH [1] was 21 pg. The MCHC [1] was 33.5%, the MCV [1] was 62.7 fL and the Mono [1] was 2.4%. The Neu [1] was 16.4%, the PT [1] was 12 s and the RBC [1] was 636.4 x10_4/ul. For the same compound, the Ret [1] was 7%, the KIDNEY_L [1] was 1 g and the KIDNEY_R [1] was 1 g. It also gave a KIDNEY_TOTAL [1] of 2.1 g, an ALP [1] of 811 IU/L and an AST [1] of 65.6 IU/L. The CRE [1] was 0.4 mg/dL, the DBIL [1] was 0.07 mg/dL and the IP [1] was 8.4 mg/dL. It also gave a K [1] of 4.1 meq/L, an LDH [1] of 177.8 IU/L and a Na [1] of 140.6 meq/L. The RALB [1] was 3.2 g/dL, the TBIL [1] was 0.1 mg/dL and the TC [1] was 66 mg/dL. The TG [1] was 66 mg/dL, the TP [1] was 5.3 g/dL and the gamma-GTP [1] was 0.8 IU/L. For the same compound, the TERMINAL_BW [2] was 222.4 g, the Bas [2] was 0.6% and the Eos [2] was 0.8%. It also gave a Fbg [2] of 221.6 mg/dL, a Lym [2] of 73.6% and an MCH [2] of 21.8 pg. The MCHC [2] was 33.9%, the MCV [2] was 64.3 fL and the Mono [2] was 3.4%. The Neu [2] was 21.4%, the RBC [2] was 632.8 x10_4/ul and the Ret [2] was 7.2%. For the same compound, the KIDNEY_L [2] was 1 g, the KIDNEY_R [2] was 0.9 g and the KIDNEY_TOTAL [2] was 1.9 g. For the same compound, the ALP [2] was 775.2 IU/L, the ALT [2] was 36.2 IU/L and the AST [2] was 68.6 IU/L. For the same compound, the CRE [2] was 0.4 mg/dL, the DBIL [2] was 0.062 mg/dL and the IP [2] was 9.3 mg/dL. For the same compound, the K [2] was 3.8 meq/L, the LDH [2] was 163.2 IU/L and the Na [2] was 141.2 meq/L. For the same compound, the RALB [2] was 3.4 g/dL, the TBIL [2] was 0.1 mg/dL and the TC [2] was 70.4 mg/dL. The TG [2] was 61.6 mg/dL, the TP [2] was 5.5 g/dL and the gamma-GTP [2] was 1 IU/L. For the same compound, the TERMINAL_BW [3] was 222 g, the APTT [3] was 17.1 s and the Bas [3] was 0.4%. It also gave an Eos [3] of 0.8%, a Fbg [3] of 235 mg/dL and a Hb [3] of 13.3 g/dL. For the same compound, the Lym [3] was 72%, the MCH [3] was 21.8 pg and the MCHC [3] was 34.2%. It also gave an MCV [3] of 63.8 fL, a Mono [3] of 3.8% and a Neu [3] of 22.2%. It also gave a PT [3] of 12.5 s, an RBC [3] of 612.6 x10_4/ul and a Ret [3] of 7%. For the same compound, the WBC [3] was 110.9 x10_2/uL, the KIDNEY_L [3] was 1 g and the KIDNEY_R [3] was 1 g. It also gave a KIDNEY_TOTAL [3] of 2 g, an ALP [3] of 861.8 IU/L and an ALT [3] of 34 IU/L. For the same compound, the AST [3] was 62.8 IU/L, the CRE [3] was 0.4 mg/dL and the DBIL [3] was 0.06 mg/dL. It also gave an IP [3] of 9.6 mg/dL, a K [3] of 4.1 meq/L and an LDH [3] of 170.2 IU/L. For the same compound, the Na [3] was 141.8 meq/L, the RALB [3] was 3.2 g/dL and the TBIL [3] was 0.1 mg/dL. The TC [3] was 64 mg/dL, the TG [3] was 44.4 mg/dL and the TP [3] was 5.3 g/dL. It also gave a gamma-GTP [3] of 1 IU/L, a TERMINAL_BW [4] of 240.1 g and a Bas [4] of 0.6%. For the same compound, the Eos [4] was 0.8%, the Fbg [4] was 243.4 mg/dL and the Lym [4] was 68%. It also gave an MCH [4] of 21.8 pg, an MCHC [4] of 33.7% and an MCV [4] of 64.6 fL. The Mono [4] was 3.8%, the Neu [4] was 26.4% and the PT [4] was 11.6 s. It also gave an RBC [4] of 609 x10_4/ul, a Ret [4] of 6.8% and a WBC [4] of 132.5 x10_2/uL. It also gave a KIDNEY_L [4] of 1.1 g, a KIDNEY_R [4] of 1.1 g and a KIDNEY_TOTAL [4] of 2.1 g. For the same compound, the ALT [4] was 38.4 IU/L, the AST [4] was 69.6 IU/L and the CRE [4] was 0.4 mg/dL. It also gave a DBIL [4] of 0.098 mg/dL, an IP [4] of 7.8 mg/dL and a K [4] of 3.9 meq/L. The LDH [4] was 207 IU/L, the Na [4] was 142.8 meq/L and the RALB [4] was 3.3 g/dL. The TBIL [4] was 0.2 mg/dL, the TC [4] was 72.2 mg/dL and the TG [4] was 108 mg/dL. The TP [4] was 5.4 g/dL, the gamma-GTP [4] was 1 IU/L and the TERMINAL_BW [5] was 226.7 g. The Bas [5] was 1%, the Eos [5] was 1.4% and the Fbg [5] was 222.4 mg/dL. It also gave a Lym [5] of 75.6%, an MCH [5] of 21.7 pg and an MCHC [5] of 34%. It also gave an MCV [5] of 63.9 fL, a Mono [5] of 3.6% and a Neu [5] of 18.6%. It also gave a PT [5] of 11.8 s, an RBC [5] of 624.4 x10_4/ul and a Ret [5] of 7.1%. The WBC [5] was 99 x10_2/uL, the KIDNEY_L [5] was 1 g and the KIDNEY_R [5] was 1 g. It also gave a KIDNEY_TOTAL [5] of 2 g, an ALP [5] of 883 IU/L and an ALT [5] of 37.2 IU/L. For the same compound, the AST [5] was 68.2 IU/L, the CRE [5] was 0.4 mg/dL and the DBIL [5] was 0.078 mg/dL. It also gave an IP [5] of 8.9 mg/dL, a K [5] of 4 meq/L and an LDH [5] of 187.4 IU/L. It also gave a Na [5] of 140.6 meq/L, an RALB [5] of 3.4 g/dL and a TBIL [5] of 0.1 mg/dL. It also gave a TC [5] of 74.2 mg/dL, a TG [5] of 74.4 mg/dL and a TP [5] of 5.4 g/dL. It also gave a gamma-GTP [5] of 0.8 IU/L, a TERMINAL_BW [6] of 223.6 g and a Bas [6] of 0.4%. It also gave an Eos [6] of 1%, a Fbg [6] of 211.6 mg/dL and a Hb [6] of 13.3 g/dL. For the same compound, the Lym [6] was 73.4%, the MCH [6] was 21.1 pg and the MCHC [6] was 34%. It also gave an MCV [6] of 61.9 fL, a Mono [6] of 3.2% and a Neu [6] of 22.4%. It also gave a PT [6] of 12.1 s, an RBC [6] of 631.4 x10_4/ul and a Ret [6] of 6.7%. The WBC [6] was 88.1 x10_2/uL, the KIDNEY_L [6] was 1 g and the KIDNEY_R [6] was 1 g. For the same compound, the KIDNEY_TOTAL [6] was 2 g, the ALP [6] was 723.4 IU/L and the ALT [6] was 37.4 IU/L. For the same compound, the AST [6] was 68 IU/L, the CRE [6] was 0.3 mg/dL and the DBIL [6] was 0.068 mg/dL. For the same compound, the IP [6] was 9.5 mg/dL, the K [6] was 4.1 meq/L and the LDH [6] was 160.4 IU/L. The Na [6] was 140.4 meq/L, the RALB [6] was 3.3 g/dL and the TBIL [6] was 0.1 mg/dL. It also gave a TC [6] of 67.6 mg/dL, a TG [6] of 43 mg/dL and a TP [6] of 5.3 g/dL. The gamma-GTP [6] was 1 IU/L, the TERMINAL_BW [7] was 223.1 g and the APTT [7] was 17.8 s. It also gave a Bas [7] of 0.4%, an Eos [7] of 1% and a Fbg [7] of 222.6 mg/dL. For the same compound, the Hb [7] was 13.3 g/dL, the Ht [7] was 38.4% and the Lym [7] was 65.6%. For the same compound, the MCH [7] was 21.9 pg, the MCHC [7] was 34.5% and the MCV [7] was 63.6 fL. It also gave a Mono [7] of 4%, a Neu [7] of 28.8% and an RBC [7] of 605 x10_4/ul. The Ret [7] was 7.1%, the KIDNEY_L [7] was 1 g and the KIDNEY_R [7] was 1 g. It also gave a KIDNEY_TOTAL [7] of 2 g, an ALP [7] of 759 IU/L and an ALT [7] of 27.4 IU/L. The AST [7] was 61 IU/L, the CRE [7] was 0.4 mg/dL and the DBIL [7] was 0.06 mg/dL. The IP [7] was 9.6 mg/dL, the K [7] was 4.3 meq/L and the LDH [7] was 166 IU/L. For the same compound, the Na [7] was 141.4 meq/L, the RALB [7] was 3.2 g/dL and the TBIL [7] was 0.1 mg/dL. The TC [7] was 62 mg/dL, the TG [7] was 23.2 mg/dL and the TP [7] was 5.3 g/dL. For the same compound, the gamma-GTP [7] was 1 IU/L, the TERMINAL_BW [8] was 227.5 g and the Bas [8] was 0.2%. It also gave an Eos [8] of 0.8%, a Fbg [8] of 300.8 mg/dL and a Hb [8] of 9.5 g/dL. For the same compound, the Ht [8] was 28.5%, the Lym [8] was 67.4% and the MCH [8] was 20.9 pg. The MCHC [8] was 33.2%, the MCV [8] was 62.8 fL and the Mono [8] was 2.8%. The PT [8] was 11.8 s, the RBC [8] was 453.8 x10_4/ul and the Ret [8] was 8.4%. The KIDNEY_L [8] was 1.1 g, the KIDNEY_R [8] was 1.1 g and the KIDNEY_TOTAL [8] was 2.1 g. The ALP [8] was 504.8 IU/L, the ALT [8] was 26.2 IU/L and the AST [8] was 51.8 IU/L. It also gave a CRE [8] of 0.4 mg/dL, a DBIL [8] of 0.056 mg/dL and an IP [8] of 9.8 mg/dL. The K [8] was 4.3 meq/L, the LDH [8] was 159.4 IU/L and the Na [8] was 141.2 meq/L. For the same compound, the RALB [8] was 2.2 g/dL, the TBIL [8] was 0.1 mg/dL and the TC [8] was 58.6 mg/dL. For the same compound, the TG [8] was 69.2 mg/dL, the TP [8] was 3.9 g/dL and the gamma-GTP [8] was 1 IU/L.
